Drawing on US11655246B2, “Aminothiazole compounds as inhibitors of CTPS1” (STEP PHARMA S.A.S., priority 2017, dated 2023), this text covers IC50 for 11 molecules.

The structures appear in SMILES notation. Structures can show the parent of a compound that is named as a salt. Where two headings read alike, the source gives them in different places.

The assay has as its target T1, human CTPS1 (Homo sapiens, UniProt P17812).
T1 construct: purchased Proteros biostructures GmbH
T1 sequence (P17812 1-591): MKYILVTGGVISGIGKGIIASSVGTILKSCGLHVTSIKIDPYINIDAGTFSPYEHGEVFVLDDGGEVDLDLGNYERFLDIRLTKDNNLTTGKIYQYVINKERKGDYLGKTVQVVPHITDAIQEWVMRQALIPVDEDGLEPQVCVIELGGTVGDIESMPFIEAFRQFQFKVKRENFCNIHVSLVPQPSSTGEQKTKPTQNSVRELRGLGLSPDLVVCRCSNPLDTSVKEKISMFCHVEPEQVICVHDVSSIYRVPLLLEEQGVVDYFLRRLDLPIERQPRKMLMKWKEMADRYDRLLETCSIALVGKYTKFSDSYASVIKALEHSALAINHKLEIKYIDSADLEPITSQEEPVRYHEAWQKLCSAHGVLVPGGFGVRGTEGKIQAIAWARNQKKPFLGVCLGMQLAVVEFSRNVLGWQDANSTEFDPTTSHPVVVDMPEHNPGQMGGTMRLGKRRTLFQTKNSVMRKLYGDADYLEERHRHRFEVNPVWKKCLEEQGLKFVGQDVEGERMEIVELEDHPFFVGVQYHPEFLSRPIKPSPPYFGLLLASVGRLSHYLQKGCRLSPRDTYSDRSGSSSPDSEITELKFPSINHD
In words: Human CTPS1 enzyme inhibition (ADP-Glo Max assay). Particulars: read-out: CTPS1 (Human CTPS1 Enzyme Inhibition data grouped by potency range). The format is biochemical. In short, it runs like this: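 ADP-Glo Max luminescence detection of ATP-to-ADP conversion by the enzyme, in 50 mM Tris, 10 mM MgCl2, 0.01% Tween-20, pH 8.0, with 2 mM L-cysteine added fresh. Enzyme preincubated with compound 10 minutes at 25° C. Percentage inhibition calculated per compound concentration.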
On the technique in general: In ADP-Glo the light output rises with the ADP produced.

[1] abbreviates: Table 18, additional potency data, 25° C.

For the molecule `Cc1sc(NS(=O)(=O)C2CC2)nc1C(C)(C)C(=O)Nc1ccc(-c2cncc(Cl)c2)cc1` [T314], the IC50 (Table 17, 25° C.) is 0.1 to 1 µM. Take `CCOc1cncc(-c2cc(F)c(NC(=O)C(OC)c3csc(NS(=O)(=O)C4CC4)n3)c(F)c2)n1` (centres unmarked) [T453]: the IC50 under setting [1] is under 0.1 µM.

Take `CC(C)c1cc(-c2cncc(C#N)c2)ccc1NC(=O)C(C)(C)c1csc(NS(=O)(=O)C2CC2)n1` [T360, N-(4-(5-cyanopyridin-3-yl)-2-isopropylphenyl)-2-(2-(cyclopropanesulfonamido)thiazol-4-yl)-2-methylpropanamide]: under setting [1], the IC50 lay in the range of 0.1 to 1 µM. Turning to `CC(C)(C(=O)Nc1ccc(-c2cccc(C#N)c2)cc1)c1csc(NS(=O)(=O)C2CC2)n1` [T88], for the setting “Table 17, 25° C.”, the IC50 lay in the range of 0.1 to 1 µM. The same measure, in the same setting: in the case of `CCC(C(=O)Nc1ccc(-c2cncc(F)c2)cn1)c1csc(NS(=O)(=O)C2CC2)n1` (centres unmarked) [T179] it was under 0.1 µM.

`CCS(=O)(=O)Nc1nc(C(C)(C)C(=O)Nc2ccc(-c3cncc(C(F)(F)F)n3)cc2)cs1` [T387, 2-(2-(ethylsulfonamido)thiazol-4-yl)-2-methyl-N-(4-(6-(trifluoromethyl)pyrazin-2-yl)phenyl)propanamide]: the IC50 under setting [1] was under 0.1 µM. On the same count and under the same terms, in the case of `CCC(C(=O)Nc1ccc(-c2cncc(C(C)(C)OC)n2)cc1)c1csc(NS(=O)(=O)C2CC2)n1` (centres unmarked) [T406, 2-(2-(cyclopropanesulfonamido)thiazol-4-yl)-N-(4-(6-(2-methoxypropan-2-yl)pyrazin-2-yl)phenyl)butanamide] it was 0.1 to 1 µM. In the case of `CCC(C(=O)Nc1ccc(-c2cncc(Cl)c2)cc1)c1csc(NS(=O)(=O)C2CC2)n1` (single isomer, unassigned) [T10, N-(4-(5-chloropyridin-3-yl)phenyl)-2-(2-(cyclopropanesulfonamido)thiazol-4-yl)butanamide.HCl], the IC50 (Table 17, 25° C.) was under 0.1 µM. Regarding `CCOc1cncc(-c2ccc(NC(=O)C(CC)c3csc(NS(=O)(=O)C4CC4)n3)c(C)c2)n1` (centres unmarked) [T441], the IC50 under setting [1] is under 0.1 µM. With `Cc1cc(-c2cncc(Cl)c2)c(F)cc1NC(=O)C(C)(C)c1csc(NS(=O)(=O)C2CC2)n1` [T364, N-(4-(5-chloropyridin-3-yl)-5-fluoro-2-methylphenyl)-2-(2-(cyclopropanesulfonamido)thiazol-4-yl)-2-methylpropanamide], the IC50 under setting [1] fell in the range of 0.1 to 1 µM. Turning to `CCC(C(=O)Nc1ccc(-c2cncc(C#N)n2)cc1F)c1csc(NS(=O)(=O)C2CC2)n1` (centres unmarked) [T404, N-(4-(6-cyanopyrazin-2-yl)-2-fluorophenyl)-2-(2-(cyclopropanesulfonamido)thiazol-4-yl)butanamide], under setting [1], the IC50 lay within 0.1 to 1 µM.
